Experimental data as given in PMC6151435, “Bioactivity In Vitro of Quercetin Glycoside Obtained in Beauveria bassiana Culture and Its Interaction with Liposome Membranes” (Molecules : A Journal of Synthetic Chemistry and Natural …, 2017).
Read-outs that look alike come from different tables or passages of the source.

Assays:
COX-1 = molecular target: T1, COX-1 (Ovis aries, UniProt P05979); assay: Inhibition of cyclooxygenase 1 (spectrophotometric, TMPD); assay type: biochemical, sheep; conditions: Tris-HCl pH 8.0, room temperature
T1 construct: purchased Sigma-Aldrich
T1 sequence (P05979 25-600): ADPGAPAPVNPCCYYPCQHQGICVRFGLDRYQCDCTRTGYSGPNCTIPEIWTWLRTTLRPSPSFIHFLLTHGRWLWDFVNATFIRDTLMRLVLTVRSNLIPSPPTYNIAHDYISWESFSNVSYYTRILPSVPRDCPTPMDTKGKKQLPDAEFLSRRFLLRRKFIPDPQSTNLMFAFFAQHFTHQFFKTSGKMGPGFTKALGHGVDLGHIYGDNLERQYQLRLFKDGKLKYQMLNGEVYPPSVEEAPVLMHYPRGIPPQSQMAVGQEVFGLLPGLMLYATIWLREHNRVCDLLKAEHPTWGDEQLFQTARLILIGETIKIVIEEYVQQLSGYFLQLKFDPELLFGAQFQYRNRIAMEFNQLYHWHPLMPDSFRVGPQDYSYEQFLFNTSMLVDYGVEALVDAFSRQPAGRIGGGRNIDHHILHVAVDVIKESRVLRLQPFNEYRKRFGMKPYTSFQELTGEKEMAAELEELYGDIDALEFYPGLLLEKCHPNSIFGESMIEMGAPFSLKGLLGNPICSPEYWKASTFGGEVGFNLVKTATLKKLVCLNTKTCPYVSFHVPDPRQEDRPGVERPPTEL
Description: The probes 1,6-diphenyl-1,3,5-hexatriene (DPH), 3-[p-(6-phenyl)-1,3,5-hexatrienyl]propionic acid (DPH-PA), Merocyanine 540 (MC540), and N,N,N-trimethyl-4-(6-phenyl-1,3,5-hexatrien-1-yl)phenylammonium p-toluenesulfonate (TMA-DPH) were purchased from Molecular Probes (Eugene, OR, USA). Tris (hydroxymethyl) aminomethane (Tris:HCl) were obtained from “Chempur” (Piekary Śląskie, Poland). Quercetin (Q) was purchased from Sigma-Aldrich. Yellow powder, ^1H-NMR (DMSO-d6) δH: 6.19 (1H, d, J = 2.1 Hz, H-6), 6.41 (1H, d, J = 2.1 Hz, H-8), 6.89 (1H, d, J = 8.5 Hz, H-5′), 7.54 (1H, dd, J = 8.5, 2.2 Hz, H-6′), 7.68 (1H, d, J = 2.2 Hz, H-2′). ^13C-NMR (DMSO-d6) δC: 93.2 (C-8), 98.0 (C-6), 102.9 (C-10), 114.9 (C-2′), 115.4 (C-5′), 119.8 (C-6′), 121.8 (C-1′), 135.6 (C-3), 144.9 (C-3′), 146.6 (C-2), 147.5 (C-4′), 156.0 (C-9), 160.6 (C-5), 163.7 (C-7), 175.7 (C=O).
This experiment, established on the basis of a modified method given in the work by Jang and Pezzuto [68], was conducted by a spectrophotometric measurement of inhibition of the cyclooxygenases’ activity COX-1 and COX-2. […] The concentrations of studied compounds fluctuated in the range 20–100 µM for Q 7-MeGlu and 5–50 µM for Q. Absorbance of the sample was followed for 3 min by measuring it at 1 min intervals, using a spectrophotometer at a wavelength of 611 nm (Cary 100 Bio, Varian) in relation to a reference sample. […]

COX-2 = molecular target: T2, COX-2 (Homo sapiens, UniProt P35354); assay: Inhibition of cyclooxygenase 2 (spectrophotometric, TMPD); assay type: biochemical
T2 construct: purchased Sigma-Aldrich
T2 sequence (P35354 18-604): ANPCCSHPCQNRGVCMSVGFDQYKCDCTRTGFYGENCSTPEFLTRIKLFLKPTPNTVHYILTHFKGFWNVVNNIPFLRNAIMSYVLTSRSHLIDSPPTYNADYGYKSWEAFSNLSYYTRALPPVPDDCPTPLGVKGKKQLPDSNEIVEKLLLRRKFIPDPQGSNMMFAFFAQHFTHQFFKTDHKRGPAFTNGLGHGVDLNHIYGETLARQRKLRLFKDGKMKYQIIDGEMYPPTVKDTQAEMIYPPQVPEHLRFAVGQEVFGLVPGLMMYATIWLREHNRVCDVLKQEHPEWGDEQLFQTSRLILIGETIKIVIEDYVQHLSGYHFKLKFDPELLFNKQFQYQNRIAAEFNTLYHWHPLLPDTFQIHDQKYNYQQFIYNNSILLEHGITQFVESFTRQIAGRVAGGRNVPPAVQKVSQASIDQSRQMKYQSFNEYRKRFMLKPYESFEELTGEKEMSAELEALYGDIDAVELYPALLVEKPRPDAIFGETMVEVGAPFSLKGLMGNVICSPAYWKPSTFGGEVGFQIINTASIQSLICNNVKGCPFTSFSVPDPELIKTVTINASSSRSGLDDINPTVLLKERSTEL
Description: The probes 1,6-diphenyl-1,3,5-hexatriene (DPH), 3-[p-(6-phenyl)-1,3,5-hexatrienyl]propionic acid (DPH-PA), Merocyanine 540 (MC540), and N,N,N-trimethyl-4-(6-phenyl-1,3,5-hexatrien-1-yl)phenylammonium p-toluenesulfonate (TMA-DPH) were purchased from Molecular Probes (Eugene, OR, USA). Tris (hydroxymethyl) aminomethane (Tris:HCl) were obtained from “Chempur” (Piekary Śląskie, Poland). Quercetin (Q) was purchased from Sigma-Aldrich.
This experiment, established on the basis of a modified method given in the work by Jang and Pezzuto [68], was conducted by a spectrophotometric measurement of inhibition of the cyclooxygenases’ activity COX-1 and COX-2. […] To initiate the reaction, arachidonic acid was added at a concentration of 35 mM. The final volume of the sample was 1 mL. […] The measurements were carried out at room temperature. The control sample contained the right amount of solvent (methanol) instead of the studied compounds. […] The experiment was performed in five replicates (n = 5).

Structure (SMILES) | IC50 (COX-1) [µM] | IC50 (COX-2; Tris-HCl pH 8.0, room temperature, read-out: IC50 COX-2) [µM] | IC50 (COX-2) [µM]
CO[C@H]1[C@H](O)[C@@H](O)[C@H](Oc2cc(O)c3c(=O)c(O)c(-c4ccc(O)c(O)c4)oc3c2)O[C@@H]1CO [Q 7-MeGlu, quercetin 7-O-β-D-(4″-O-methyl)glucopyranoside] | 45.1 ± 2.51 | 49.2 ± 5.55 | 
O=c1c(O)c(-c2ccc(O)c(O)c2)oc2cc(O)cc(O)c12 [Quercetin, 3,3′,4′,5,7-pentahydroxyflavone] | 15.7 ± 1.73 |  | 17 ± 2.43
